According to US12655090B2, “Cyclopropylamide compounds against parasites in fish” (Intervet Inc., priority 2021, dated 2026):
Read-outs that look alike come from different tables or passages of the source.

Columns and labels:
[1] = tested on: Copepodids (juvenile sea lice stage of Lepeophtheirus salmonis); test: Juvenile sea lice contact assay; conditions: approximately 24 hours continuous exposure in seawater, read-out: Sea lice inhibition (% of dead+damaged copepodids); for inhibition at 0.01 µM: test concentration 10 nM
Procedure: Copepodids (juvenile sea lice stage of Lepeophtheirus salmonis) were exposed to seawater spiked with declining concentrations of a test compound (dissolved in a DMSO sea-water mixture). Sea lice inhibition (% of dead+damaged copepodids) was assessed after approximately 24 hours of continuous exposure. The vitality of used parasites was confirmed in a negative (solvent) control group.

[2] = tested on: Mobile stages of sea lice (pre-adults, adults of Lepeophtheirus salmonis); test: Adult sea lice contact assay; conditions: assessed after approximately 1 and 24 hours of continuous exposure, read-out: EC50 (sea lice inhibition, dead+damaged sea lice)
Procedure: Mobile stages of sea lice (i.e., pre-adults, adults of Lepeophtheirus salmonis) were exposed to seawater spiked with declining concentrations of a test compound (dissolved in a PEG sea-water mixture). Sea lice inhibition (% of dead+damaged sea lice) was assessed after approximately 1 and 24 hours of continuous exposure in comparison to a negative (solvent) control group.

[3] = tested on: Lepeophtheirus salmonis sea lice on salmon (Salmo salar); test: Salmon in vivo efficacy trial using gavage administration; conditions: po
Procedure: Salmon (Salmo salar) were treated once orally by gavage at a dose of 5 mg/kg bodyweight per fish (Day 0). As formulation DMSO 5%/fish oil 95% was used. Salmon of the negative control group received only the excipients of the formulation. The fish were infested with Lepeophtheirus salmonis copepodids twice before treatment (i.e., around day −28 and day −3) and once after treatment (i.e., day 17). […] Around day 28 (end of animal phase), fish were euthanized, and lice on each fish were classified ((pre-)adult or juvenile stage) and counted. […] Efficacy is expressed as a % reduction of sea lice in treated groups versus a control group, using the Abbott's formula.

[4] = tested on: Lepeophtheirus salmonis sea lice on salmon (Salmo salar); test: Salmon in vivo efficacy trial using in-feed administration; conditions: 1 mg/kg fish biomass via coated feed for 7 consecutive days; for therapeutic efficacy against juvenile sea lice: day -3 infestation, counted around day 25; for therapeutic efficacy against (pre-)adult sea lice: day -28 infestation, counted around day 8
Procedure: Commercial fish feed pellets were coated with formulated test compound. As formulation DMSO 5%/fish oil 95% was used. Salmon (Salmo salar) were treated orally with 1 mg/kg fish biomass via coated feed for 7 consecutive days. Salmon of the negative control groups received only feed coated with the excipients of the formulation. Fish of the therapeutic groups were infested with Lepeophtheirus salmonis copepodids twice before treatment (around day −28 and day −3).

[5] = tested on: fully susceptible Lepeophtheirus salmonis isolate, mobile sea lice stages; test: Sea lice resistance assay, sensitive isolate
Procedure: (§1) A sea lice resistance assay was carried out using mobile sea lice stages (i.e., pre-adults, adults) of several Lepeophtheirus salmonis-isolates with known resistance profiles (i.e., fully susceptible or multiresistant (resistant to azametiphos (OP), emamectin benzoate (ML), deltamethrin (SP)). Sea lice were exposed to seawater spiked with declining concentrations of a test compound (dissolved in a PEG300/sea-water mixture). Sea lice inhibition (% of dead+damaged sea lice) was assessed after approximately 24 and 48 hours of continuous exposure in comparison to a negative (solvent) control group.

[6] = tested on: multiresistant Lepeophtheirus salmonis isolate (resistant to azametiphos, emamectin benzoate, deltamethrin), mobile sea lice stages; test: Sea lice resistance assay, multi-resistant isolate
Procedure: as §1

[7] = 168 h, read-out: therapeutic efficacy against (pre-)adult sea lice (% reduction vs control, Abbott's formula), once orally by gavage 5 mg/kg bodyweight, day -28 infestation, counted at day 7
[8] = 672 h, read-out: prophylactic efficacy at re-infestation on Day 17 (% reduction vs control, Abbott's formula), once orally by gavage 5 mg/kg bodyweight, re-infestation day 17, counted around day 28
[9] = 672 h, read-out: therapeutic efficacy against juvenile sea lice (% reduction vs control, Abbott's formula), once orally by gavage 5 mg/kg bodyweight, day -3 infestation, counted around day 28

Row | SMILES | inhibition at 0.0001 µM ([1]; test concentration 0.1 nM) | EC50 [2] | inhibition in vivo at 5 mg/kg [3, 7] | inhibition in vivo at 5 mg/kg [3, 8] | inhibition in vivo at 5 mg/kg [3, 9] | therapeutic efficacy against juvenile sea lice [4] | therapeutic efficacy against (pre-)adult sea lice [4] | prophylactic efficacy against re-infestation after treatment (D14) [4] | prophylactic efficacy against re-infestation after treatment (D28) [4] | EC50 ([5]; after 24 hours) | EC50 ([5]; after 48 hours) | inhibition at 0.001 µM ([1]; test concentration 1 nM) | EC50 ([6]; after 24 hours) | EC50 ([6]; after 48 hours) | inhibition at 0.01 µM [1]
1 | N#CC1(NC(=O)c2cc(NC(=O)[C@H]3[C@H](c4cc(Cl)cc(Cl)c4)C3(Cl)Cl)cc(F)c2F)CC1 [Compound 1594] | 80% | ≤ 1 nM | 100% | 100% | 100% | 100% | 100% | 100% | 100% |  |  |  |  |  | 
2 | N#CC1(NC(=O)c2cc(NC(=O)[C@H]3[C@H](c4cc(Cl)cc(Cl)c4)C3(Cl)Cl)ccc2Cl)CC1 [Compound 1590] |  | ≤ 1 nM | 100% | 80% | 80% | 100% | 100% | 100% | 79.2% | 4.12 ppb | 0.40 ppb | 80% | 3.75 ppb | 0.58 ppb | 
3 | N#CC1(NC(=O)c2cc(NC(=O)[C@H]3[C@H](c4cc(Cl)c(Cl)c(Cl)c4)C3(Cl)Cl)ccc2Cl)CC1 [Compound 1541] |  | 1 to 10 nM | 80% | 100% | 100% | 100% | 100% | 100% | 100% |  |  |  |  |  | 100%
4 | N#CC1(NC(=O)c2cc(NC(=O)[C@H]3[C@H](c4cc(Cl)c(F)c(Cl)c4)C3(Cl)Cl)ccc2Cl)CC1 [Compound 1609] |  | 1 to 10 nM | 100% | 100% | 100% |  |  |  |  |  |  |  |  |  | 100%
